From ChEMBL document CHEMBL4229519, “Design, synthesis, and activity evaluation of novel erythropoietin mimetic peptides” (Bioorg Med Chem Lett, 2018)
Bridge positions count the residues as written; N and C are the ends. Square brackets hold non-standard residues; d marks the D form. Peptide text beside a SMILES is read from it. 1Nal = N[C@@H](Cc1cccc2ccccc12)C(=O)O; Cit = NC(=O)NCCC[C@H](N)C(=O)O; NMeA = CN[C@@H](C)C(=O)O; Sar = CNCC(=O)O

Legend:
[1] = system: Mus musculus; test: Antianemic activity in mouse assessed as hematocrit by measuring ratio of RBC volume to total blood volume at 2.1 umol/kg, sc administered once daily for 7 consecutive days (reference value: 0.476 +/- 0.024); format: functional
[2] = system: Mus musculus; test: Toxicity in mouse assessed as body weight at 2.1 umol/kg, sc administered once daily for 7 consecutive days measured on day 1 during compound dosing (reference value: 24.5 +/- 1.1 g); format: organism-based; conditions: in vivo
[3] = system: Mus musculus; test: Toxicity in mouse assessed as increase in body weight at 2.1 umol/kg, sc administered once daily for 7 consecutive days measured on day 7 during compound dosing relative to control; format: organism-based; conditions: in vivo
[4] = system: Mus musculus; test: Toxicity in mouse assessed as increase in body weight at 2.1 umol/kg, sc administered once daily for 7 consecutive days measured on day 5 during compound dosing relative to control; format: organism-based; conditions: in vivo
[5] = system: Mus musculus; test: Antianemic activity in mouse assessed as reticulocyte level at 2.1 umol/kg, sc administered once daily for 7 consecutive days (reference value: 0.46 +/- 0.11 10^12/L); format: functional
[6] = system: Mus musculus; test: Antianemic activity in mouse assessed as RBC level at 2.1 umol/kg, sc administered once daily for 7 consecutive days (reference value: 8.74 +/- 0.58 10^12/L); format: functional
[7] = system: Mus musculus; test: Toxicity in mouse assessed as increase in body weight at 2.1 umol/kg, sc administered once daily for 7 consecutive days measured on day 3 during compound dosing relative to control; format: organism-based; conditions: in vivo
[8] = system: Mus musculus; test: Antianemic activity in mouse assessed as hemoglobin level at 2.1 umol/kg, sc administered once daily for 7 consecutive days (reference value: 135.1 +/- 9.5 g/L); format: functional
[9] = system: Mus musculus; test: Effect on WBC level in mouse at 2.1 umol/kg, sc administered once daily for 7 consecutive days (reference value: 5.84 +/- 1.43 10^9/L); format: ADME, organism-based; conditions: in vivo
[10] = biological target: T1, Erythropoietin receptor (Homo sapiens, UniProt P19235); test: Agonist activity at EPO receptor in human TF1 cells assessed as induction of cell proliferation after 48 hrs by MTT assay; format: cell-based
T1 sequence (P19235 whole entry): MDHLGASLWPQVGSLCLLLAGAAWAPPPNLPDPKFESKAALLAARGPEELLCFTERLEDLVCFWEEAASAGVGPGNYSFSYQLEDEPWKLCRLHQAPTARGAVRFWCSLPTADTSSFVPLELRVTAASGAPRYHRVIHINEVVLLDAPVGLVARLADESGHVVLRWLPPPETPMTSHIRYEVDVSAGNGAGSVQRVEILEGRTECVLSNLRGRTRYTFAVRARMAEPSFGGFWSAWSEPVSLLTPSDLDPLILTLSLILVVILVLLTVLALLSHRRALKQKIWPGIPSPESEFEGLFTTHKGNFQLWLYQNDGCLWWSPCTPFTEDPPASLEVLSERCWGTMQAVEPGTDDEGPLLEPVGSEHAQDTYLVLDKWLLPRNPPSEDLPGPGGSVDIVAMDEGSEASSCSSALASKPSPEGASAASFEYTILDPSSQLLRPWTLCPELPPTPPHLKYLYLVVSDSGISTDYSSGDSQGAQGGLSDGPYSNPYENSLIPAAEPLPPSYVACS

Row | Structure (SMILES) | Ratio [1] | Activity [2] [g] | Activity [3] [%] | Activity [4] [%] | Activity [5] [×10¹² /L] | Activity [6] [×10¹² /L] | Activity [7] [%] | Activity [8] [g/L] | Activity [9] [×10⁹ /L] | EC50 [10]
1 | CC[C@H](C)[C@@H]1NC(=O)[C@H](C)N(C)C(=O)CNC(=O)[C@H](CCSC)NC(=O)[C@H](Cc2cnc[nH]2)NC(=O)[C@@H](NC(=O)[C@H](C)NC(=O)[C@H](Cc2ccc(O)cc2)NC(=O)[C@H](CC(C)C)NC(=O)CNC(=O)CNC(C)=O)CSSC[C@@H](C(=O)N[C@@H](CCC(N)=O)C(=O)N2CCC[C@H]2C(=O)N[C@@H](CC(C)C)C(=O)N[C@@H](CCCNC(=N)N)C(=O)N(C)CC(=O)N[C@@H](CCCCN)C(N)=O)NC(=O)[C@H](C(C)C)NC(=O)[C@H](Cc2cccc3ccccc23)NC(=O)[C@H]([C@@H](C)O)NC1=O (Ac-GGLYACHMG[NMeA]IT[1Nal]VCQPLR[Sar]K-NH2; disulfide 6-15) | 0.498 | 24.7 | 27.2 | 19.5 | 0.66 | 9.15 | 12.7 | 144.4 | 5.64 | 
2 | CC[C@H](C)[C@@H]1NC(=O)[C@@H]2CCCN2C(=O)CNC(=O)[C@H](CCSC)NC(=O)[C@H](Cc2cnc[nH]2)NC(=O)[C@@H](NC(=O)[C@H](C)NC(=O)[C@@H](Cc2ccc(O)cc2)NC(=O)[C@H](CC(C)C)NC(=O)CNC(=O)CNC(C)=O)CSSC[C@@H](C(=O)N[C@@H](CCC(N)=O)C(=O)N2CCC[C@H]2C(=O)N[C@@H](CC(C)C)C(=O)N[C@@H](CCCNC(=N)N)C(=O)N(C)CC(=O)N[C@@H](CCCCN)C(N)=O)NC(=O)[C@H](C(C)C)NC(=O)[C@H](Cc2cccc3ccccc23)NC(=O)[C@H]([C@@H](C)O)NC1=O |  |  |  |  |  |  |  |  |  | Not Active
3 | CC[C@H](C)[C@@H]1NC(=O)[C@@H]2CCCN2C(=O)CNC(=O)[C@H](CCSC)NC(=O)[C@H](Cc2cnc[nH]2)NC(=O)[C@@H](NC(=O)[C@H](C)NC(=O)[C@H](Cc2ccc(O)cc2)NC(=O)[C@H](CC(C)C)NC(=O)CNC(=O)CNC(C)=O)CSSC[C@@H](C(=O)N[C@@H](CCC(N)=O)C(=O)N(C)[C@@H](C)C(=O)N[C@@H](CC(C)C)C(=O)N[C@@H](CCCNC(=N)N)C(=O)N(C)CC(=O)N[C@@H](CCCCN)C(N)=O)NC(=O)[C@H](C(C)C)NC(=O)[C@H](Cc2cccc3ccccc23)NC(=O)[C@H]([C@@H](C)O)NC1=O (Ac-GGLYACHMGPIT[1Nal]VCQ[NMeA]LR[Sar]K-NH2; disulfide 6-15) | 0.493 | 24.7 | 19.1 | 15.3 | 0.65 | 9.14 | 11 | 146.4 | 5.45 | 
4 | CC[C@H](C)[C@@H]1NC(=O)[C@@H]2CCCN2C(=O)CNC(=O)[C@H](CCSC)NC(=O)[C@H](Cc2cnc[nH]2)NC(=O)[C@@H](NC(=O)[C@@H](C)NC(=O)[C@H](Cc2ccc(O)cc2)NC(=O)[C@H](CC(C)C)NC(=O)CNC(=O)CNC(C)=O)CSSC[C@@H](C(=O)N[C@@H](CCC(N)=O)C(=O)N2CCC[C@H]2C(=O)N[C@@H](CC(C)C)C(=O)N[C@@H](CCCNC(=N)N)C(=O)N(C)CC(=O)N[C@@H](CCCCN)C(N)=O)NC(=O)[C@H](C(C)C)NC(=O)[C@H](Cc2cccc3ccccc23)NC(=O)[C@H]([C@@H](C)O)NC1=O |  |  |  |  |  |  |  |  |  | Not Active
5 | CC[C@H](C)[C@@H]1NC(=O)[C@@H]2CCCN2C(=O)CNC(=O)[C@H](CCSC)NC(=O)[C@H](Cc2cnc[nH]2)NC(=O)[C@@H](NC(=O)[C@H](C)NC(=O)[C@H](Cc2ccc(O)cc2)NC(=O)[C@H](CC(C)C)NC(=O)CNC(=O)CNC(C)=O)CSSC[C@@H](C(=O)N[C@@H](CCC(N)=O)C(=O)N2CCC[C@H]2C(=O)N[C@@H](CC(C)C)C(=O)N[C@@H](CCCNC(N)=O)C(=O)N(C)CC(=O)N[C@@H](CCCCN)C(N)=O)NC(=O)[C@H](C(C)C)NC(=O)[C@H](Cc2cccc3ccccc23)NC(=O)[C@H]([C@@H](C)O)NC1=O (Ac-GGLYACHMGPIT[1Nal]VCQPL[Cit][Sar]K-NH2; disulfide 6-15) | 0.535 | 25.5 | 21.7 | 16.9 | 0.89 | 9.67 | 11.7 | 158.1 | 6.48 | 
6 | CC[C@H](C)[C@@H]1NC(=O)[C@@H]2CCCN2C(=O)CNC(=O)[C@H](CCSC)NC(=O)[C@H](Cc2cnc[nH]2)NC(=O)[C@@H](NC(=O)[C@H](C)NC(=O)[C@H](Cc2ccc(O)cc2)NC(=O)[C@H](CC(C)C)NC(=O)CNC(=O)CNC(C)=O)CSSC[C@@H](C(=O)N[C@@H](CCC(N)=O)C(=O)N2CCC[C@H]2C(=O)N[C@@H](CC(C)C)C(=O)N[C@@H](CCCNC(=N)N)C(=O)N(C)CC(=O)N[C@@H](CCCCN)C(N)=O)NC(=O)[C@H](C(C)C)NC(=O)[C@H](Cc2cccc3ccccc23)NC(=O)[C@H]([C@@H](C)O)NC1=O | 0.493 | 24.9 | 22.6 | 16.3 | 0.7 | 9.17 | 12.5 | 149.9 | 5.11 | 
7 | CC[C@H](C)[C@@H]1NC(=O)[C@@H]2CCCN2C(=O)CNC(=O)[C@@H](CCSC)NC(=O)[C@H](Cc2cnc[nH]2)NC(=O)[C@@H](NC(=O)[C@H](C)NC(=O)[C@H](Cc2ccc(O)cc2)NC(=O)[C@H](CC(C)C)NC(=O)CNC(=O)CNC(C)=O)CSSC[C@@H](C(=O)N[C@@H](CCC(N)=O)C(=O)N2CCC[C@H]2C(=O)N[C@@H](CC(C)C)C(=O)N[C@@H](CCCNC(=N)N)C(=O)N(C)CC(=O)N[C@@H](CCCCN)C(N)=O)NC(=O)[C@H](C(C)C)NC(=O)[C@H](Cc2cccc3ccccc23)NC(=O)[C@H]([C@@H](C)O)NC1=O |  |  |  |  |  |  |  |  |  | Not Active
